For one compound, Ki and EC50 results are on record in US7851590B2, “Y2 selective receptor agonists for therapeutic interventions” (7TM Pharma A/S, priority 2005, dated 2010).

In experiment [1] the target is T1, rhesus monkey Y2 receptor (Macaca mulatta, UniProt Q9GK74).
T1 sequence (Q9GK74 1-381): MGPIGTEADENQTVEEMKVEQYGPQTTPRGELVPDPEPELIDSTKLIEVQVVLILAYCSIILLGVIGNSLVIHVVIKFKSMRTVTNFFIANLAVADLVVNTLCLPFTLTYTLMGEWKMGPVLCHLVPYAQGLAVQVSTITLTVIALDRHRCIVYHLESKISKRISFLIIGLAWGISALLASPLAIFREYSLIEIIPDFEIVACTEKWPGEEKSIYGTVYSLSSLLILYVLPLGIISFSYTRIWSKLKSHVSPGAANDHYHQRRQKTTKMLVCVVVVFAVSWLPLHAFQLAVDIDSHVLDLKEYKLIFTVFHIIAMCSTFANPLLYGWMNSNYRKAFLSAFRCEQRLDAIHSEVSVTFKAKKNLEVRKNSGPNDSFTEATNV
Nature of the experiment: Rhesus monkey Y2 receptor affinity assay (competition binding with human 125I-PYY). Particulars: CHO cells stably transfected with the rhesus monkey Y2 receptor; 12 pM human 125I-PYY, 3 hours at 4 C; read-out: Competition binding w 126I-PYY at Y2 (Ki). Also on record: The coding region of the rhesus monkey NPY-Receptors (Y1, Y2, Y4) were sub-cloned into the pcDNA3.1/Zeo vector; expressed in transfected cells; host or cells: CHO cells, stably transfected. As for the experimental part: The stable transfected CHO cells are transferred to 48-well culture plates one day prior assay at a density of 2,500 cells per well aiming at 5-8% binding of the radioactive ligand. […] Cells are washed twice in 0.5 ml of ice-cold buffer and 0.5-1 ml of lysis buffer (8 M Urea, 2% NP40 in 3 M acetic acid) is added and the bound radioactivity is counted in a gamma counter. Determinations are made in triplicates.

The target of experiment [2] is T1, rhesus monkey Y2 receptor. Nature of the experiment: Rhesus monkey Y2 receptor potency assay (phosphatidylinositol turnover, Gqi5). It is filed as cell-based. Set-up: The coding region of the rhesus monkey NPY-Receptors (Y1, Y2, Y4) were sub-cloned into the pcDNA3.1/Zeo vector; expressed in transfected cells; host or cells: COS-7 cells, transiently transfected. Particulars: COS-7 cells transiently transfected with rhesus monkey Y2 receptor and Gqi5; μM; read-out: IP3 EC50 values at Y2. Here is the method:
Determinations are made in duplicates. EC50 values were calculated using a standard pharmacological data handling software, Prism 3.0 (graphPad Sofware, San Diego, USA).

Take `CC[C@H](C)[C@H](NC(=O)[C@H](Cc1ccc(O)cc1)NC(=O)[C@H](CCCNC(=N)N)NC(=O)[C@H](CCCNC(=N)N)NC(=O)[C@H](CC(C)C)NC(=O)[C@H](CC(=O)O)NC(=O)[C@H](C)NC(=O)[C@H](C)NC(=O)[C@H](Cc1ccc(O)cc1)NC(=O)[C@H](CCC(N)=O)NC(=O)[C@H](C)NC(=O)[C@H](CCSC)NC(=O)[C@H](CCC(N)=O)NC(=O)[C@H](CCC(=O)O)NC(=O)[C@@H]1CCCN1C(=O)[C@@H](NC(=O)[C@H](C)NC(=O)[C@H](CC(N)=O)NC(=O)[C@H](CC(=O)O)NC(=O)CNC(=O)[C@@H]1CCCN1C(=O)[C@H](Cc1ccc(O)cc1)NC(=O)[C@@H](NC(=O)[C@@H]1CCCN1C(=O)[C@H](CCC(=O)O)NC(=O)[C@H](CC(C)C)NC(=O)[C@@H]1CCCN1C(=O)[C@H](C)N)C(C)C)[C@@H](C)O)C(=O)N[C@@H](CC(N)=O)C(=O)N[C@@H](CCSC)C(=O)N[C@@H](CC(C)C)C(=O)N[C@H](C(=O)N[C@@H](CCCNC(=N)N)C(=O)N1CCC[C@H]1C(=O)N[C@@H](CCCNC(=N)N)C(=O)N[C@@H](Cc1ccc(O)cc1)C(N)=O)[C@@H](C)O` [PP, Pancreatic Polypeptide]: the inhibition constant (Ki) in experiment [1] is greater than 1 µM. Besides, the EC50 in experiment [2] is greater than 1 µM.
